tested on: HCT116 human colon carcinoma cell line; experiment: In vitro cell proliferation (MTT) assay, HCT116; type: cell-based; settings: Homo sapiens, HCT-116; MTT, 72 h exposure
Procedure: (§1) The targeted compounds were tested for their in-vitro anti-cancer activity against three tumor cell lines (HCT116, Hep G2 and MCF-7). Doxorubicin was included in the experiments as a reference cytotoxic compound. Exponentially growing cells from different cancer cell lines were trypsinized, counted and seeded at the appropriate densities into 96-well microtiter plates. Cells then were incubated in a humidified atmosphere at 37 °C for 24 h. Then, cells were exposed to different concentrations of compounds for 72 h. Then the viability of treated cells was determined using MTT technique (described latter).
(§2) Three cancer cell lines including human colon carcinoma (HCT116), human breast adenocarcinoma (MCF-7) and human hepatocellular carcinoma (Hep G2), were purchased from American Type Cell Culture Collection (ATCC, Manassas, VA, USA) and grown on the appropriate growth medium Dulbecco’s modified Eagle’s medium (DMEM) or Roswell Park Memorial Institute medium (RPMI 1640) supplemented with […] of streptomycin, 100 units/mL of penicillin and 10% of heat-inactivated fetal bovine serum in a humidified, 5% (v/v) CO2 atmosphere at 37 °C [34]. Cytotoxicity assay by 3-[4,5-dimethylthiazole-2-yl]-2,5-diphenyltetrazolium bromide (MTT).
(§3) Exponentially growing cells from different cancer cell lines were trypsinized, counted and seeded at the appropriate densities (2000–1000 cells/0.33 cm^2 well) into 96-well microtiter plates. Cells then were incubated in a humidified atmosphere at 37 °C for 24 h. Then, cells were exposed to different concentrations of compounds (0.1, 10, 100, 1000 µM) for 72 h. Then the viability of treated cells was determined using MTT technique as follow. Media were removed; cells were incubated with 200 μL of 5% MTT solution/well (Sigma Aldrich, Darmstadt, Germany) and were allowed to metabolize the dye into a colored-insoluble formazan crystal for 2 h. The remaining MTT solution were discarded from the wells and the formazan crystals were dissolved in 200 µl/well acidified isopropanol for 30 min, covered with aluminum foil and with continuous shaking using a MaxQ 2000 plate shaker (Thermo Fisher Scientific Inc, Waltham, MA, USA) at room temperature. Absorbance were measured at 570 nm using a Stat Fax^R 4200 plate reader (Awareness Technology, Inc., Awareness Technology, FL, USA). The cell viability was expressed as percentage of control and the concentration that induces 50% of maximum inhibition of cell proliferation (IC50) were determined using Graph Pad Prism version 5 software (Graph Pad Software Inc, San Diego, CA, USA) (1,2).

Compared with COc1cccc2c1C(=O)c1c(O)c3c(c(O)c1C2=O)C[C@@](O)(C(=O)CO)C[C@@H]3O[C@H]1C[C@H](N)[C@H](O)[C@H](C)O1 [Doxorubicin, reference compound], Cc1nc2ccccc2nc1Nc1cccc(C(=O)Nc2ccc(Cl)cc2)c1 [VIb, N-(4-Chlorophenyl)-3-((3-methylquinoxalin-2-yl)amino)benzamide] is 870-fold higher in IC50: 0.62 µM for the first, 537 µM for the second.

First: Cc1cccc(NC(=O)Nc2ccc(Nc3nc4ccccc4nc3Cl)cc2)c1 [XVIId, 1-(4-((3-Chloroquinoxalin-2-yl)amino)phenyl)-3-(m-tolyl) urea]
Second: O=C(Nc1ccc(Nc2nc3ccccc3nc2Cl)cc1)c1ccc(Cl)cc1 [XVIb, 4-Chloro-N-(4-((3-chloroquinoxalin-2-yl)amino)phenyl) benzamide]
The IC50 of the first is lower: 190 µM for the first, greater than 1000 µM for the second.

For COc1ccc(C(=O)Nc2ccc(Nc3nc4ccccc4nc3Cl)cc2)cc1 [XVIc, N-(4-((3-Chloroquinoxalin-2-yl)amino)phenyl)-4-methoxybenzamide], the IC50 was greater than 1000 µM.

tested on: Hep G2 human hepatocellular carcinoma cell line; experiment: In vitro cell proliferation (MTT) assay, Hep G2; type: cell-based; settings: Homo sapiens, HepG2; MTT, 72 h exposure
Procedure: as §1, §2, §3

Going from COc1cccc2c1C(=O)c1c(O)c3c(c(O)c1C2=O)C[C@@](O)(C(=O)CO)C[C@@H]3O[C@H]1C[C@H](N)[C@H](O)[C@H](C)O1 [Doxorubicin, reference compound] to Cc1nc2ccccc2nc1Nc1cccc(C(=O)Nc2ccc(Cl)cc2)c1 [VIb, N-(4-Chlorophenyl)-3-((3-methylquinoxalin-2-yl)amino)benzamide], the IC50 rises from 1.2 µM to 955 µM (800-fold).

First: Cc1cccc(NC(=O)Nc2ccc(Nc3nc4ccccc4nc3Cl)cc2)c1 [XVIId, 1-(4-((3-Chloroquinoxalin-2-yl)amino)phenyl)-3-(m-tolyl) urea]
Second: O=C(Nc1ccc(Nc2nc3ccccc3nc2Cl)cc1)c1ccc(Cl)cc1 [XVIb, 4-Chloro-N-(4-((3-chloroquinoxalin-2-yl)amino)phenyl) benzamide]
The IC50 of the first is lower: 513 µM for the first, greater than 1000 µM for the second. The first is the more potent here.

Work on COc1ccc(C(=O)Nc2ccc(Nc3nc4ccccc4nc3Cl)cc2)cc1 [XVIc, N-(4-((3-Chloroquinoxalin-2-yl)amino)phenyl)-4-methoxybenzamide] yielded an IC50 greater than 1000 µM.

molecular target: T1, VEGFR-2 (Homo sapiens, UniProt P35968); experiment: In vitro VEGFR-2 inhibition assay (Kinase-Glo Plus luminescence); type: biochemical; settings: single concentration of 10 µM; read-out: % of VEGFR-2 Inhibition
T1 construct: purchased Bio Science Corporation (BPS), San Diego, CA, USA
T1 sequence (P35968 20-1356): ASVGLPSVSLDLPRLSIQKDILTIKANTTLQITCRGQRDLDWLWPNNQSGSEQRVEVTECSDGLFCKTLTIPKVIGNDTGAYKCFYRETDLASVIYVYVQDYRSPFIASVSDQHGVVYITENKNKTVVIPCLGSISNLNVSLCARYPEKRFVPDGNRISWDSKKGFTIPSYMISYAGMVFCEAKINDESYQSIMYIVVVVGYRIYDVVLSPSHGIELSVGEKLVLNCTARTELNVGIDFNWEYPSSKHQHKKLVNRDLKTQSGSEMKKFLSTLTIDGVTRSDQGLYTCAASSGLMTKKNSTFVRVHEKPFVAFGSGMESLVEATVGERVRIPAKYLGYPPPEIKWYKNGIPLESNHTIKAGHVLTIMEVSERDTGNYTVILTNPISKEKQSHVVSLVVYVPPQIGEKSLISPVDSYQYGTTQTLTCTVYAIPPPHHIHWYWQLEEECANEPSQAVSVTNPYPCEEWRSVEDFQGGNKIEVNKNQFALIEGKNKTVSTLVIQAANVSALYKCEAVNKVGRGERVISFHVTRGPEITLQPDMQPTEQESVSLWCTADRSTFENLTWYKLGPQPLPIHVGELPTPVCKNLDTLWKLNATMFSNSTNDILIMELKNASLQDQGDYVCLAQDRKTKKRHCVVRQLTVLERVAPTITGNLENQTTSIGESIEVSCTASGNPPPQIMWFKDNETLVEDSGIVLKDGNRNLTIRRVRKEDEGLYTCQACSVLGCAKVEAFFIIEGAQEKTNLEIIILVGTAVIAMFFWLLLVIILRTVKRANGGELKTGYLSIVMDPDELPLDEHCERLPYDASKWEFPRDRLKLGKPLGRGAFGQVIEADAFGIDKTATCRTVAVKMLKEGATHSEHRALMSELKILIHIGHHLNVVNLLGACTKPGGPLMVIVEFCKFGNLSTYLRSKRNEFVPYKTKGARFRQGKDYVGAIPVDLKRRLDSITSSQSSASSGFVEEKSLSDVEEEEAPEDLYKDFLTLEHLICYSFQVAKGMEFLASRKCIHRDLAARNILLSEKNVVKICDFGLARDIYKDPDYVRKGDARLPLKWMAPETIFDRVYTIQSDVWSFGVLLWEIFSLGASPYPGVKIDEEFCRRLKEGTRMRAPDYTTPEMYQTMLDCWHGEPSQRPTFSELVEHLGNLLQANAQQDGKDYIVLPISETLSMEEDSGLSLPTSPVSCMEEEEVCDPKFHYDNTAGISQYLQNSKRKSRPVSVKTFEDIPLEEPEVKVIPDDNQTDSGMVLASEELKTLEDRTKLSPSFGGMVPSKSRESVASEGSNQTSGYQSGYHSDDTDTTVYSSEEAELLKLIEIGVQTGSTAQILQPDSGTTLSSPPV
Procedure: In an attempt to investigate the possible mechanism of action of the synthesized compounds based on structural similarity with sorafenib, all of them were tested for VEGFR-2 inhibitory activity at Bio Science Corporation (BPS, San Diego, CA, USA). The assay was performed using the Kinase-Glo Plus luminescence kinase assay kit (Promega, San Diego, CA, USA). It measures kinase activity by quantitating the amount of ATP remaining in solution following a kinase reaction. […].
The in-vitro enzyme inhibition determination for the synthesized compounds was carried out at Bio Science Corporation (BPS)-San Diego, CA, USA. The assay was performed using Kinase-Glo Plus luminescence kinase assay kit (Promega), where the kinase activity was measured by quantitating the amount of ATP remaining in solution following a kinase reaction. The luminescent signal from the assay is correlated with the amount of ATP present and is inversely correlated with the amount of kinase activity. Our compounds were diluted with 10% DMSO and 5 µL of the dilution was added to a 50 µL reaction so that the final concentration of DMSO is 1% in all of reactions. All of the enzymatic reactions were conducted at 30 °C for 40 min. The 50 µL reaction mixture contains 40 mM Tris, pH 7.4, 10 mM MgCl2, 0.1 mg/mL BSA, 1 mM DTT, 10 µM ATP, Kinase substrate and the enzyme. After the enzymatic reaction, 50 µL of Kinase-Glo Plus Luminescence kinase assay solution (Promega San Diego, CA, USA) was added to each reaction and incubate the plate for 5 min at room temperature. Luminescence signal was measured using a BioTek Synergy 2 microplate reader.
Kinase activity assays were performed in duplicate at each concentration. The luminescence data were analyzed using the computer software, Graphpad Prism. The difference between luminescence intensities in the absence of Kinase (Lut) and in the presence of Kinase (Luc) was defined as 100% activity (Lut − Luc). Using luminescence signal (Lu) in the presence of the compound, % activity was calculated as:% activity = {(Lut − Lu)(Lut − Luc)} × 100% where Lu = the luminescence intensity in the presence of the compound.

First: Cc1cccc(NC(=O)Nc2ccc(Nc3nc4ccccc4nc3Cl)cc2)c1 [XVIId, 1-(4-((3-Chloroquinoxalin-2-yl)amino)phenyl)-3-(m-tolyl) urea]
Second: O=C(Nc1ccc(Nc2nc3ccccc3nc2Cl)cc1)c1ccc(Cl)cc1 [XVIb, 4-Chloro-N-(4-((3-chloroquinoxalin-2-yl)amino)phenyl) benzamide]
The inhibition at 10 µM of the first is higher: 5% for the first, 4% for the second.

Molecule COc1ccc(C(=O)Nc2ccc(Nc3nc4ccccc4nc3Cl)cc2)cc1 [XVIc, N-(4-((3-Chloroquinoxalin-2-yl)amino)phenyl)-4-methoxybenzamide] has an inhibition at 10 µM of 4%.

tested on: three tumor cell lines (HCT116, Hep G2 and MCF-7); experiment: In vitro anti-cancer activity stated for the tested cell lines together; type: cell-based, human; settings: HCT116, Hep G2 and MCF-7 together
Procedure: as §1, §2
Exponentially growing cells from different cancer cell lines were trypsinized, counted and seeded at the appropriate densities (2000–1000 cells/0.33 cm^2 well) into 96-well microtiter plates. Cells then were incubated in a humidified atmosphere at 37 °C for 24 h. Then, cells were exposed to different concentrations of compounds (0.1, 10, 100, 1000 µM) for 72 h. Then the viability of treated cells was determined using MTT technique as follow. Media were removed; cells were incubated with 200 μL of 5% MTT solution/well (Sigma Aldrich, Darmstadt, Germany) and were allowed to metabolize the dye into a colored-insoluble formazan crystal for 2 h. […] Absorbance were measured at 570 nm using a Stat Fax^R 4200 plate reader (Awareness Technology, Inc., Awareness Technology, FL, USA). […]

In the case of Cc1nc2ccccc2nc1Nc1cccc(C(=O)Nc2ccc(Cl)cc2)c1 [VIb, N-(4-Chlorophenyl)-3-((3-methylquinoxalin-2-yl)amino)benzamide], the “activity against the tested cell lines (in words)” value is reported as “no significant inhibitory activity”.

tested on: MCF-7 human breast adenocarcinoma cell line; experiment: In vitro cell proliferation (MTT) assay, MCF-7; type: cell-based; settings: Homo sapiens, MCF7; MTT, 72 h exposure
Procedure: as §1, §2, §3

Going from COc1cccc2c1C(=O)c1c(O)c3c(c(O)c1C2=O)C[C@@](O)(C(=O)CO)C[C@@H]3O[C@H]1C[C@H](N)[C@H](O)[C@H](C)O1 [Doxorubicin, reference compound] to Cc1nc2ccccc2nc1Nc1cccc(C(=O)Nc2ccc(Cl)cc2)c1 [VIb, N-(4-Chlorophenyl)-3-((3-methylquinoxalin-2-yl)amino)benzamide], the IC50 rises from 0.9 µM to 692 µM (770-fold). The first is the more potent here.

Compared with Cc1cccc(NC(=O)Nc2ccc(Nc3nc4ccccc4nc3Cl)cc2)c1 [XVIId, 1-(4-((3-Chloroquinoxalin-2-yl)amino)phenyl)-3-(m-tolyl) urea], O=C(Nc1ccc(Nc2nc3ccccc3nc2Cl)cc1)c1ccc(Cl)cc1 [XVIb, 4-Chloro-N-(4-((3-chloroquinoxalin-2-yl)amino)phenyl) benzamide] is higher in IC50: 64.5 µM for the first, greater than 1000 µM for the second. The first is the more potent here.

In the case of COc1ccc(C(=O)Nc2ccc(Nc3nc4ccccc4nc3Cl)cc2)cc1 [XVIc, N-(4-((3-Chloroquinoxalin-2-yl)amino)phenyl)-4-methoxybenzamide], the IC50 is reported as greater than 1000 µM.

tested on: not given; experiment: not given; settings: not given

Cc1cccc(NC(=O)Nc2ccc(Nc3nc4ccccc4nc3Cl)cc2)c1 [XVIId, 1-(4-((3-Chloroquinoxalin-2-yl)amino)phenyl)-3-(m-tolyl) urea] gave a melting point greater than 300 °C.

First: COc1ccc(C(=O)Nc2ccc(Nc3nc4ccccc4nc3Cl)cc2)cc1 [XVIc, N-(4-((3-Chloroquinoxalin-2-yl)amino)phenyl)-4-methoxybenzamide]
Second: O=C(Nc1ccc(Nc2nc3ccccc3nc2Cl)cc1)c1ccc(Cl)cc1 [XVIb, 4-Chloro-N-(4-((3-chloroquinoxalin-2-yl)amino)phenyl) benzamide]
The melting point of the first is higher: 235 to 236 °C for the first, 233 to 235 °C for the second.

Work on Cc1nc2ccccc2nc1Nc1cccc(C(=O)Nc2ccc(Cl)cc2)c1 [VIb, N-(4-Chlorophenyl)-3-((3-methylquinoxalin-2-yl)amino)benzamide] yielded a melting point of 240 to 241 °C.

From article PMC6470675, “Design and Synthesis of New Quinoxaline Derivatives as Anticancer Agents and Apoptotic Inducers” (Molecules, 2019)
